According to patent publication US10414811B2, “Protease-resistant lipidated GLP-1 analogs” (MEDIMMUNE LIMITED, priority 2015, dated 2019):
Where two headings read alike, the source gives them in different places. Numbered stars: 1 amine (or outer) side, 2 acyl side, 3 side chain; on linkers, the order of the positions; unused ones are H or OH. Square brackets hold non-standard residues; d marks the D form. Side chains are listed from the residue outwards. Peptide text beside a SMILES is read from it. * marks the point of attachment. C18 diacid = O=C(O)CCCCCCCCCCCCCCCCC(=O)*; γGlu = O=C(O)[C@H](CCC(=O)[*:2])N[*:1]; αMeF = C[C@](N)(Cc1ccccc1)C(=O)O; αMeK = C[C@](N)(CCCCN)C(=O)O; αMeS = C[C@](N)(CO)C(=O)O; AEEA = NCCOCCOCC(=O)O; Aib = CC(C)(N)C(=O)O

Columns and labels:
Format in all cases: cell-based
[1] = biological target: T1, human glucose-dependent insulinotropic peptide receptor (GIPR) (Homo sapiens, UniProt P48546); assay: cAMP assay, human GIPR cells; conditions: cAMP assay
T1 construct: expressed in transfected cells
T1 sequence (P48546 22-466): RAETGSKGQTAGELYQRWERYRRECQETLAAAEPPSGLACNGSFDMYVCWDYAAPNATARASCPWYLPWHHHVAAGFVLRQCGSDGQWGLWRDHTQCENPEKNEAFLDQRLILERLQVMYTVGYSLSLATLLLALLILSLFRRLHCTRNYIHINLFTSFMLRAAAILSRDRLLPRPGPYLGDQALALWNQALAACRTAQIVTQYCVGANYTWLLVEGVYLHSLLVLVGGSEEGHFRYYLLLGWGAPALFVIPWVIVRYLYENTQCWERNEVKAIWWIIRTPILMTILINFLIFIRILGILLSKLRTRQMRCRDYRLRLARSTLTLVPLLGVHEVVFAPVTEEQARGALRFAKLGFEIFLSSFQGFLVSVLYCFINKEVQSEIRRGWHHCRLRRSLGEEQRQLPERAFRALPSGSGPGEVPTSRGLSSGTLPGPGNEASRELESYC
In short: (§1)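 Peptide-stimulated cAMP measured by two-step HTRF after a 30 min room-temperature incubation with receptor-expressing cells (hGLP-1R, hGIPR at 1×10^5 cells/ml; hGCGR at 2×10^5 cells/ml). Duplicate dilutions; EC50 from 4-parameter logistic fit of % Delta F.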

[2] = biological target: T2, human glucagon receptor (GCGR) (Homo sapiens, UniProt P47871); assay: cAMP assay, human GCGR cells; conditions: cAMP assay
T2 construct: expressed in transfected cells
T2 sequence (P47871 26-477): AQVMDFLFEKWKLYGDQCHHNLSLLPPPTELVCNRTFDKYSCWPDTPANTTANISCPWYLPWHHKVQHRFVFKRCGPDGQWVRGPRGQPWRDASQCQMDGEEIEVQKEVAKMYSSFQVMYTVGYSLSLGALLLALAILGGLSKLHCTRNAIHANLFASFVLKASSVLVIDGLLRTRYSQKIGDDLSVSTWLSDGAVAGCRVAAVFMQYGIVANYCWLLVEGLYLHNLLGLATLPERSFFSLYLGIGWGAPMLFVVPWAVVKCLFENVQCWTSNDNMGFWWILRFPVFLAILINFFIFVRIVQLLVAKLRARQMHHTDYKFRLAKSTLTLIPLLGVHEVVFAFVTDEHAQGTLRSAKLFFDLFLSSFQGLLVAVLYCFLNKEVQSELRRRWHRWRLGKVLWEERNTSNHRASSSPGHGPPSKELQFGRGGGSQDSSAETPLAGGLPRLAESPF
In short: as §1

[3] = biological target: T3, human GLP-1 receptor (GLP-1R) (Homo sapiens, UniProt P43220); assay: cAMP assay, human GLP-1R cells
T3 construct: expressed in transfected cells
T3 sequence (P43220 24-463): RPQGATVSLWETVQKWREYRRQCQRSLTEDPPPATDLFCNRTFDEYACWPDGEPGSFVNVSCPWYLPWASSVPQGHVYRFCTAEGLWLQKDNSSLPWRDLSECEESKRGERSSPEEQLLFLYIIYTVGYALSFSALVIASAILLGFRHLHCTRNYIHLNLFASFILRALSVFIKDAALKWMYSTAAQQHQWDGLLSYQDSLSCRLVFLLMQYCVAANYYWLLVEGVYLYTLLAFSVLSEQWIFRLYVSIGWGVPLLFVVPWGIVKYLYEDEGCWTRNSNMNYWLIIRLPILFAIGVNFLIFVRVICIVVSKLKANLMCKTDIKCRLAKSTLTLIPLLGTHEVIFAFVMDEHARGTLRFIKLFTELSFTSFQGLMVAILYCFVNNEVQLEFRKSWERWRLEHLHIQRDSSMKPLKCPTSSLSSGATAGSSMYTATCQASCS
In short: as §1

[4] = first determination (n1), read-out: Primary assay EC50 GIP-R (n1)
[5] = second determination (n2), read-out: Primary assay EC50 GIP-R (n2)
[6] = first determination (n1), read-out: Primary assay EC50 Gluc-R (n1)
[7] = second determination (n2), read-out: Primary assay EC50 Gluc-R (n2)
[8] = cAMP assay, first determination (n1), read-out: Primary assay EC50 GLP-1R n1
[9] = cAMP assay, second determination (n2), read-out: Primary assay EC50 GLP-1R n2
[10] = mean of n1 and n2, read-out: Mean pM GLP-1R

EC50 [1, 4]	EC50 [1, 5]	EC50 [2, 6]	EC50 [2, 7]	EC50 [3, 8]	EC50 [3, 9]	EC50 [3, 10]	Compound
≥ 25 nM	≥ 24.9 nM	≥ 25 nM	≥ 24.9 nM	≥ 25000 pM	≥ 24900 pM	–	CC[C@H](C)[C@H](NC(=O)[C@](C)(Cc1ccccc1)NC(=O)[C@H](CCC(=O)O)NC(=O)[C@](C)(CCCCN)NC(=O)[C@H](C)NC(=O)[C@H](C)NC(=O)[C@H](CCC(=O)O)NC(=O)CNC(=O)[C@H](CCC(=O)O)NC(=O)[C@H](CC(C)C)NC(=O)[C@](C)(Cc1ccccc1)NC(=O)[C@H](CO)NC(=O)[C@](C)(CO)NC(=O)[C@@H](NC(=O)[C@H](CC(=O)O)NC(=O)[C@H](CO)NC(=O)[C@@H](NC(=O)[C@](C)(Cc1ccccc1)NC(=O)[C@H](CO)NC(=O)[C@H](CCCCNC(=O)COCCOCCNC(=O)COCCOCCNC(=O)CC[C@H](NC(=O)CCCCCCCCCCCCCCCCC(=O)O)C(=O)O)NC(=O)[C@H](CCC(=O)O)NC(=O)C(C)(C)NC(=O)[C@@H](N)Cc1c[nH]cn1)[C@@H](C)O)C(C)C)C(=O)N[C@@H](C)C(=O)N[C@@](C)(Cc1ccccc1)C(=O)N[C@H](C(=O)N[C@H](C(=O)N[C@@](C)(CCCCN)C(=O)NCC(=O)NCC(N)=O)C(C)C)C(C)C [compound 125] (H-H[Aib]EK([AEEA-AEEA-γGlu-C18 diacid])S[αMeF]TSDV[αMeS]S[αMeF]LEGEAA[αMeK]E[αMeF]IA[αMeF]VV[αMeK]GG-NH2; N-terminus assumed)
≥ 27 nM	≥ 27 nM	≥ 27 nM	≥ 27 nM	160 pM	62 pM	112 pM	CC[C@H](C)[C@H](NC(=O)[C@](C)(Cc1ccccc1)NC(=O)[C@H](CCC(=O)O)NC(=O)[C@H](CCCCNC(=O)COCCOCCNC(=O)CCCCCCCCCCCCCCCCC(=O)O)NC(=O)[C@H](C)NC(=O)[C@H](C)NC(=O)[C@H](CCC(=O)O)NC(=O)CNC(=O)[C@H](CCC(=O)O)NC(=O)[C@H](CC(C)C)NC(=O)[C@](C)(Cc1ccccc1)NC(=O)[C@H](CO)NC(=O)[C@](C)(CO)NC(=O)[C@@H](NC(=O)[C@H](CC(=O)O)NC(=O)[C@H](CO)NC(=O)[C@@H](NC(=O)[C@](C)(Cc1ccccc1)NC(=O)[C@H](CO)NC(=O)CNC(=O)[C@H](CCC(=O)O)NC(=O)C(C)(C)NC(=O)[C@@H](N)Cc1c[nH]cn1)[C@@H](C)O)C(C)C)C(=O)N[C@@H](C)C(=O)N[C@@](C)(Cc1ccccc1)C(=O)N[C@H](C(=O)N[C@H](C(=O)N[C@@](C)(CCCCN)C(=O)NCC(=O)NCC(N)=O)C(C)C)C(C)C [compound 161]
≥ 25 nM	≥ 25.1 nM	≥ 25 nM	≥ 25.1 nM	≥ 25000 pM	≥ 25100 pM	≥ 25100 pM	CC[C@H](C)[C@H](NC(=O)[C@](C)(Cc1ccccc1)NC(=O)[C@H](CCC(=O)O)NC(=O)[C@](C)(CCCCN)NC(=O)[C@H](C)NC(=O)[C@H](C)NC(=O)[C@H](CCC(=O)O)NC(=O)CNC(=O)[C@H](CCC(=O)O)NC(=O)[C@H](CC(C)C)NC(=O)[C@](C)(Cc1ccccc1)NC(=O)[C@H](CO)NC(=O)[C@](C)(CO)NC(=O)[C@@H](NC(=O)[C@H](CC(=O)O)NC(=O)[C@H](CO)NC(=O)[C@@H](NC(=O)[C@](C)(Cc1ccccc1)NC(=O)[C@H](CO)NC(=O)CNC(=O)[C@H](CCC(=O)O)NC(=O)[C@H](CCCCNC(=O)COCCOCCNC(=O)COCCOCCNC(=O)CC[C@H](NC(=O)CCCCCCCCCCCCCCCCC(=O)O)C(=O)O)NC(=O)[C@@H](N)Cc1c[nH]cn1)[C@@H](C)O)C(C)C)C(=O)N[C@@H](C)C(=O)N[C@@](C)(Cc1ccccc1)C(=O)N[C@H](C(=O)N[C@H](C(=O)N[C@@](C)(CCCCN)C(=O)NCC(=O)NCC(N)=O)C(C)C)C(C)C [compound 127]
≥ 81 nM	≥ 81 nM	≥ 81 nM	≥ 81 nM	7.5 pM	5.5 pM	6.5 pM	CCCCCCCCCCCCCCCC(=O)N[C@@H](CCC(=O)NCCCC[C@H](NC(=O)[C@H](CCCNC(=N)N)NC(=O)CNC(=O)[C@H](CCCCN)NC(=O)[C@@H](NC(=O)[C@H](CC(C)C)NC(=O)[C@H](Cc1c[nH]c2ccccc12)NC(=O)[C@H](C)NC(=O)[C@@H](NC(=O)[C@H](Cc1ccccc1)NC(=O)[C@H](CCC(=O)O)NC(=O)[C@H](CCCCN)NC(=O)[C@H](C)NC(=O)[C@H](C)NC(=O)[C@H](CCC(N)=O)NC(=O)CNC(=O)[C@H](CCC(=O)O)NC(=O)[C@H](CC(C)C)NC(=O)[C@H](Cc1ccc(O)cc1)NC(=O)[C@H](CO)NC(=O)[C@H](CO)NC(=O)[C@@H](NC(=O)[C@H](CC(=O)O)NC(=O)[C@H](CO)NC(=O)[C@@H](NC(=O)[C@H](Cc1ccccc1)NC(=O)[C@@H](NC(=O)CNC(=O)[C@H](CCC(=O)O)NC(=O)C(C)(C)NC(=O)[C@@H](N)Cc1c[nH]cn1)[C@@H](C)O)[C@@H](C)O)C(C)C)[C@@H](C)CC)C(C)C)C(N)=O)C(=O)O [compound 5]
